In the test the test system is patients suffering from social phobia (Social Anxiety Disorder). The test is described as follows: double-blind, placebo-controlled study in patients suffering from social phobia (self-report questionnaires, state anxiety measures, verbal performance, PET). The following applies: NK1-antagonist group, daily oral dose of 5 mg, administered four weeks. It is filed as in vivo, human. The source says:
The first study was a double-blind, placebo-controlled study of the effect of [2-methoxy-5-(5-trifluoromethyl-tetrazol-1-yl-benzyl)]-(2-phenyl-piperidin-3-yl)-amine dihydrochloride in patients suffering from social phobia (otherwise known as Social Anxiety Disorder). Thirty six patients aged between 19 and 48 meeting the DSM-IV criteria for social phobia (as set out in Diagnostic and Statistical Manual of Mental Disorders, 4th Edition, published by the American Psychiatric Association) were selected. […] The effect of [2-methoxy-5(5-trifluoromethyl-tetrazol-1-yl-benzyl)]-(2-phenyl-piperidin-3-yl)-amine dihydrochloride on anxiety symptoms and brain activity in patients diagnosed with social phobia was evaluated using self-report questionnaires (the Social Phobia Scale (SPS), the Social Interaction Anxiety Scale (SIAS), the Personal Report on Confidence as a Speaker (PRCS), the Social Phobia Screening Questionnaire (SPSQ), the Sheehan Disability Inventory (SDI), self-report versions of the Liebowitz Social Anxiety Scale (LSAS-SR) and the Global Assessment of Functioning (GAF) scale), state anxiety measures (the Speilberger state-anxiety inventory (STAI-S), subjective ratings of fear and distress on 0-100 (min-max) scales and heart rate), verbal performance (comparing the number of spoken syllables during the first ten seconds of each videotaped speech) and PET assessments.

Structures can show the parent of a compound that is named as a salt.

With `COc1ccc(-n2nnnc2C(F)(F)F)cc1CN[C@H]1CCCN[C@H]1c1ccccc1` [[2-methoxy-5-(5-trifluoromethyl-tetrazol-1-yl-benzyl)]-(2-phenyl-piperidin-3-yl)-amine dihydrochloride], the “effect compared with placebo” value is “generally superior to placebo” and the “improvement of patients with social phobia after short-term treatment” value is recorded as “significantly improved”.

The record behind these values is patent US20070060617A1, “2-Methoxy-5(5-trifluoromethyl-tetrazol-1-yl-benzyl)-2s-phenyl-piperdin-3s-yl)-amine for the treatment of social phobia” (priority 2004, published 2007).
